Laboratory results taken from patent publication US20240376113A1 (Volastra Therapeutics, Inc., priority 2020, published 2024).
Where two headings read alike, the source gives them in different places.

Columns and labels:
[1] = biological target: ENPP1 on MDA-MB-231 cells (Homo sapiens (Human), UniProt P22413); assay: Inhibition of ENPP1 hydrolysis of AMP p-nitrophenyl ester on MDA-MB-231 cells (Assay 2); type: cell-based
Description: Inhibition of ENPP1 Hydrolysis of AMP p-Nitrophenyl Ester on MDA-MB-231 Cells (Assay 2)
ENPP1 is normally expressed on the human metastatic breast cancer cell line MDA-MB-231. Hydrolysis of the p-nitrophenyl ester of AMP (pNP-AMP), an isostere of ATP, is selectively catalyzed by ENPP1 in the supernatant of MDA-MB-231 cell cultures. Inhibition of the hydrolysis of pNP-AMP by MDA-MB-231 at pH 7.4 and 37° C. is a good model of physiologically relevant activity of membrane-bound ENPP1 at disease-relevant expression levels.
MDA-MB-231 cells were harvested using TypLE Express Enzyme digestion and suspended in 100 μL of Leibovitz's L-15 Medium, 20% FBS, seeding the cells in a 96-well assay plate with 4.5×10^4 cells/well. Cells were incubated at 37 C with 1% CO2 for 24 h. In a separate dilution plate, 2× of top dose of compound was prepared in phenol-red free 1640 medium without FBS and then 1:3 serial diluted in the same medium. The cell culture medium of L15 medium was aspirated carefully and cells were washed with PBS once, and 50 μL per well of test compound or DMSO blank are added to the assay plate. Substrate mix (50 μL; 0.5 mM pNP-AMP in phenol-red free 1640 media without FBS) was added for a pNP-AMP final concentration of 0.25 mM. The system was incubated at 37° C. for 3 h.

ENPP-1 ECD = ENPP-1 ECD (Homo sapiens (Human), UniProt P22413); assay: Inhibition of ENPP1 hydrolysis of 2′,3′-cGAMP (Assay 1)
Sequence of ENPP-1 ECD (P22413 98-925): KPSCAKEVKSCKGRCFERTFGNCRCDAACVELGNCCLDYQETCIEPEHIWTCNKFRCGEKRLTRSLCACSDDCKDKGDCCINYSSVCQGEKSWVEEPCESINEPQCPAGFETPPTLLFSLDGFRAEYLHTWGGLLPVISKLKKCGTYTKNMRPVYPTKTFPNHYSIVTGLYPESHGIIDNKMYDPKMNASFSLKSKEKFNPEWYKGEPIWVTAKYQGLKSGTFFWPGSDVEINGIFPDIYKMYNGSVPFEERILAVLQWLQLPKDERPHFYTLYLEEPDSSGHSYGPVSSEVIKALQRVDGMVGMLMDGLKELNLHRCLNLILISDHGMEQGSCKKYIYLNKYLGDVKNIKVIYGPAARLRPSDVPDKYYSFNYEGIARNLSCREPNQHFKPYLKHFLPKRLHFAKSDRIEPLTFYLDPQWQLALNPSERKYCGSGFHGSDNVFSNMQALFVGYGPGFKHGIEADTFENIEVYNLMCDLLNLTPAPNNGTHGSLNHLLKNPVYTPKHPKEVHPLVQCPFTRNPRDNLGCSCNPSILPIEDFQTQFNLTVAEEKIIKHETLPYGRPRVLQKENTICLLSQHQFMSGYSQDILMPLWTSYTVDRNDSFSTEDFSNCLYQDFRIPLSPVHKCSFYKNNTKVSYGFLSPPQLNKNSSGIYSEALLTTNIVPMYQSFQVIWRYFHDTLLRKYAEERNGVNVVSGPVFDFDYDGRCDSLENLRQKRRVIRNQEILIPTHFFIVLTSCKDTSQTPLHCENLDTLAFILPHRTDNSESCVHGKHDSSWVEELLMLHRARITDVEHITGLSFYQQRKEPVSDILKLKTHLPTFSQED
Description: Test compounds were plated in a 3× dilution scheme in a 384 well plate.

[2] = pNP-AMP 0.25 mM, MDA-MB-231 cells, 37° C. 3 h, KI,app from IC50 via Cheng/Prusoff, read-out: Assay 2 KI, app
[3] = pNP-AMP 0.25 mM, MDA-MB-231 cells, 37° C. 3 h, KI,app from IC50 via Cheng/Prusoff, read-out: Assay 2 KI,app values (class)
[4] = Assay 1 KI values (class), 2,3-cGAMP 24 μM, AMP-Glo luminescence, KI from IC50 via Cheng/Prusoff
[5] = read-out: Assay 1 KI, 2,3-cGAMP 24 μM, AMP-Glo luminescence, KI from IC50 via Cheng/Prusoff
[6] = read-out: Assay 1 KI values (class), 2,3-cGAMP 24 μM, AMP-Glo luminescence, KI from IC50 via Cheng/Prusoff

Sequence of ENPP1 on MDA-MB-231 cells (P22413 whole entry): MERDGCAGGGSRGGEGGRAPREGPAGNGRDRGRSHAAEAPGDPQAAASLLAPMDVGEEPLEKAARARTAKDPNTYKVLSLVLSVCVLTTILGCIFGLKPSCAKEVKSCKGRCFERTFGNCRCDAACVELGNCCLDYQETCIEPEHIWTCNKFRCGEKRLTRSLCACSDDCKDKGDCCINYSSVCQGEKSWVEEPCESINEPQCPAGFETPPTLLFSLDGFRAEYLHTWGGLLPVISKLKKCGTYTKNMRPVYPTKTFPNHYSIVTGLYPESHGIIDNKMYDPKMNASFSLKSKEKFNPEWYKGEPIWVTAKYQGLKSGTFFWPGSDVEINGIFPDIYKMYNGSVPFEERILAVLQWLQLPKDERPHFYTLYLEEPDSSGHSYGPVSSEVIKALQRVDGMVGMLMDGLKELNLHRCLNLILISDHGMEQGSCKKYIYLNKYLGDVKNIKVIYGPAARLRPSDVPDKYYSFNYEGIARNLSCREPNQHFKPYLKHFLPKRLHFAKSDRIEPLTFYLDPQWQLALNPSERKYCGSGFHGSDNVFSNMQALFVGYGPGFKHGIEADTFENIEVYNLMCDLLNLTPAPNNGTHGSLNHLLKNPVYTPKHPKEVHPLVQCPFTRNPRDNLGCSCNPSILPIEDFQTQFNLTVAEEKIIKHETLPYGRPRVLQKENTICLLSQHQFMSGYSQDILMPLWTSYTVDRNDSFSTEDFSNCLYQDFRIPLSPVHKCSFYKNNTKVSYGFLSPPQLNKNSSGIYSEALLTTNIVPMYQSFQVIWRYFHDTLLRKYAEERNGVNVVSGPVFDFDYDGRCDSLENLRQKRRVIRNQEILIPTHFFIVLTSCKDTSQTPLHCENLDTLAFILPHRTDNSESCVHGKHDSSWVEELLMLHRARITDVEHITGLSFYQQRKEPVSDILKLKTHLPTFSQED

| SMILES | Ki [1, 2] [nM] | Ki [1, 3] [nM] | Ki (ENPP-1 ECD; [4]) [nM] | Ki (ENPP-1 ECD; [5]) [nM] | Ki [1] [nM] | Ki (ENPP-1 ECD) [nM] | Ki (ENPP-1 ECD; [6]) [nM] |
| --- | --- | --- | --- | --- | --- | --- | --- |
| Cc1nc2ncnn2c(N2CCCC2)c1Cc1ccc(S(C)(=N)=O)cc1 (stereo not drawn) [Compound 8, imino(methyl)(4-((5-methyl-7-(pyrrolidin-1-yl)-[1,2,4]triazolo[1,5-a]pyrimidin-6-yl)methyl)phenyl)-λ^6-sulfanone] | 7.79 | < 10 | < 3 | 0.0718 | – | – | – |
| Cc1nc2ncnn2c(N(C)C)c1Cc1cccc(N)c1 | – | – | – | – | 1400 | 110 | – |
| Cc1cc2ncnn2c(N2CCCC2)c1Cc1ccc(S(C)(=N)=O)cc1 (stereo not drawn) [Compound 75, imino(methyl)(4-{[7-methyl-5-(pyrrolidin-1-yl)-[1,2,4]triazolo[1,5-a]pyridin-6-yl]methyl}phenyl)-λ^6-sulfanone] | 36.7 | > 10 | < 3 | – | – | – | – |
| Cc1nc2ncnn2c(N(C)C)c1Cc1ccc(S(N)(=O)=O)cc1 [Compound 2, 4-((7-(dimethylamino)-5-methyl-[1,2,4]triazolo[1,5-a]pyrimidin-6-yl)methyl)benzenesulfonamide] | 14.4 | > 10 | < 3 | 0.158 | – | – | – |
| Cc1nc2ncnn2c(N(C)C)c1Cc1ccc(S(=N)(=O)CCO)cc1 (stereo not drawn) [Compound 59, (4-{[7-(dimethylamino)-5-methyl-[1,2,4]triazolo[1,5-a]pyrimidin-6-yl]methyl}phenyl)(2-hydroxyethyl)imino-λ^6-sulfanone] | 11.5 | > 10 | < 3 | – | – | – | – |
| Cc1cc2ncnn2c(N(C)C)c1Cc1ccc(S(C)(=N)=O)cc1 (stereo not drawn) [Compound 28, (4-{[5-(dimethylamino)-7-methyl-[1,2,4]triazolo[1,5-a]pyridin-6-yl]methyl}phenyl)(imino)methyl-λ^6-sulfanone] | 1.06 | < 10 | < 3 | < 0.027 | – | – | – |
| Cc1nc2ncnn2c(N2CCCC2)c1Cc1ccc(B(O)O)cc1 [Compound 81, (4-{[5-methyl-7-(pyrrolidin-1-yl)-[1,2,4]triazolo[1,5-a]pyrimidin-6-yl]methyl}phenyl)boronic acid] | 13.5 | > 10 | < 3 | 0.817 | – | – | – |
| Cc1nc2ncnn2c(N(C)C)c1Cc1ccc(S(=N)(=O)Cc2ccccc2)cc1 (stereo not drawn) [Compound 55, benzyl(4-((7-(dimethylamino)-5-methyl-[1,2,4]triazolo[1,5-a]pyrimidin-6-yl)methyl)phenyl)(imino)-λ^6-sulfanone] | 1.65 | – | < 3 | – | – | – | – |
| CN(C)c1c(Cc2ccc(S(C)(=N)=O)cc2)c(Cl)nc2ncnn12 (stereo not drawn) [Compound 74, (4-{[5-chloro-7-(dimethylamino)-[1,2,4]triazolo[1,5-a]pyrimidin-6-yl]methyl}phenyl)(imino)methyl-λ^6-sulfanone] | 7.13 | < 10 | < 3 | – | – | – | – |
| Cc1nc2ncnn2c(N(C)C)c1Cc1ccc([S@@](C)(=N)=O)cc1 (single isomer, unassigned) [Compound 1b] | 1.67 | < 10 | – | 0.015 | – | – | < 3 |
| CS(=N)(=O)c1ccc(Cc2cnc3ncnn3c2N2CCCC2)cc1 (stereo not drawn) [Compound 54] | 74.7 | > 10 | – | 1.71 | – | – | < 3 |
| Cc1cc2ncnn2c(N2CCCCC2)c1Cc1ccc(S(C)(=N)=O)cc1 (stereo not drawn) [Compound 76, imino(methyl)(4-{[7-methyl-5-(piperidin-1-yl)-[1,2,4]triazolo[1,5-a]pyridin-6-yl]methyl}phenyl)-λ^6-sulfanone] | 38.6 | > 10 | < 3 | – | – | – | – |
| Cc1nc2ncnn2c(N(C)C)c1Cc1ccc([S@@](C)(=N)=O)cc1 (single isomer, unassigned) [Compound 49a] | 1.59 | < 10 | – | 0.0236 | – | – | < 3 |
| CN(C)c1c(Cc2ccc(S(C)(=N)=O)cc2)c(C2CC2)nc2ncnn12 (stereo not drawn) [Compound 53, (4-{[5-cyclopropyl-7-(dimethylamino)-[1,2,4]triazolo[1,5-a]pyrimidin-6-yl]methyl}phenyl)(imino)methyl-λ^6-sulfanone] | 1.11 | < 10 | < 3 | – | – | – | – |
| CCS(=N)(=O)c1ccc(Cc2c(C)nc3ncnn3c2N(C)C)cc1 (stereo not drawn) [Compound 57, (4-{[7-(dimethylamino)-5-methyl-[1,2,4]triazolo[1,5-a]pyrimidin-6-yl]methyl}phenyl)(ethyl)imino-λ^6-sulfanone] | 9.59 | < 10 | < 3 | – | – | – | – |
| COCCS(=N)(=O)c1ccc(Cc2c(C)nc3ncnn3c2N(C)C)cc1 (stereo not drawn) [Compound 60, (4-{[7-(dimethylamino)-5-methyl-[1,2,4]triazolo[1,5-a]pyrimidin-6-yl]methyl}phenyl)(imino)(2-methoxyethyl)-λ^6-sulfanone] | 6.25 | < 10 | < 3 | 0.0862 | – | – | – |
| CC(=O)NCCS(=N)(=O)c1ccc(Cc2c(C)nc3ncnn3c2N(C)C)cc1 (stereo not drawn) [Compound 64, N-{2-[(4-{[7-(dimethylamino)-5-methyl-[1,2,4]triazolo[1,5-a]pyrimidin-6-yl]methyl}phenyl)(imino)oxo-λ^6-sulfanyl]ethyl}acetamide] | 4.41 | < 10 | < 3 | 0.0667 | – | – | – |
| Cc1c(Cc2ccc(S(C)(=N)=O)cc2)c(N(C)C)nc2ncnn12 (stereo not drawn) [Compound 86, (4-{[5-(dimethylamino)-7-methyl-[1,2,4]triazolo[1,5-a]pyrimidin-6-yl]methyl}phenyl)(imino)methyl-λ^6-sulfanone] | 8.29 | – | – | – | – | – | – |
| CCc1nc2ncnn2c(N2CCCC2)c1Cc1ccc(S(C)(=N)=O)cc1 (stereo not drawn) [Compound 50, (4-{[5-ethyl-7-(pyrrolidin-1-yl)-[1,2,4]triazolo[1,5-a]pyrimidin-6-yl]methyl}phenyl)(imino)methyl-λ^6-sulfanone] | 15.7 | > 10 | < 3 | – | – | – | – |
| Cc1nc2ncnn2c(N2CCCC2)c1Cc1ccc(C(=O)NO)cc1 [Compound 82, N-hydroxy-4-{[5-methyl-7-(pyrrolidin-1-yl)-[1,2,4]triazolo[1,5-a]pyrimidin-6-yl]methyl}benzamide] | 69.9 | > 10 | < 3 | 1.16 | – | – | – |
| Cc1cc2ncnn2c(N(C)C)c1Cc1ccc(S(=N)(=O)CCC(=O)O)cc1 (stereo not drawn) [Compound 87, 3-[(4-{[5-(dimethylamino)-7-methyl-[1,2,4]triazolo[1,5-a]pyridin-6-yl]methyl}phenyl)(imino)oxo-λ^6-sulfanyl]propanoic acid] | 0.447 | – | – | 0.0184 | – | – | – |
| COc1nc2ncnn2c(N(C)C)c1Cc1ccc([S@@](C)(=N)=O)cc1 [Compound 88a] | 0.222 | – | – | 0.00586 | – | – | – |
| Cc1nc2ncnn2c(N(C)C)c1Cc1ccc(S(C)(=N)=O)cc1 (stereo not drawn) [Compound 1, (4-((7-(dimethylamino)-5-methyl-[1,2,4]triazolo[1,5-a]pyrimidin-6-yl)methyl)phenyl)(imino)(methyl)-λ^6-sulfanone] | 7.47 | < 10 | < 3 | 0.109 | – | – | – |
| Cc1nc2ncnn2c(N2CCCC2)c1Cc1ccc(S(N)(=O)=O)cc1 [Compound 9, 4-((5-methyl-7-(pyrrolidin-1-yl)-[1,2,4]triazolo[1,5-a]pyrimidin-6-yl)methyl)benzenesulfonamide] | 32.4 | > 10 | < 3 | 0.569 | – | – | – |
| CN(C)c1c(Cc2ccc([S@@](C)(=N)=O)cc2)c(Cl)nc2ncnn12 [Compound 74a] | 1.34 | < 10 | – | 0.0523 | – | – | < 3 |
| CS(=N)(=O)c1ccc(Cc2c(Cl)nc3ncnn3c2N2CCCC2)cc1 (stereo not drawn) [Compound 78, (4-{[5-chloro-7-(pyrrolidin-1-yl)-[1,2,4]triazolo[1,5-a]pyrimidin-6-yl]methyl}phenyl)(imino)methyl-λ^6-sulfanone] | 24.1 | > 10 | < 3 | – | – | – | – |
| Cc1nc2ncnn2c(N2CCCC2)c1Cc1ccc([S@](C)(=N)=O)cc1 (single isomer, unassigned) [Compound 8a] | 9.73 | < 10 | – | 0.054 | – | – | < 3 |
| Cc1nc2ncnn2c(N2CCC2)c1Cc1ccc(S(C)(=N)=O)cc1 (stereo not drawn) [Compound 10, (4-((7-(azetidin-1-yl)-5-methyl-[1,2,4]triazolo[1,5-a]pyrimidin-6-yl)methyl)phenyl)(imino)(methyl)-λ^6-sulfanone] | 224 | > 10 | 3 to 300 | 3.12 | – | – | – |
